In paper PMC11510897 (2024) one finds binding data, which are given here for one molecule.

For this experiment, the system named is A5-S3G (DNA, aptamer) TCGGATAAAACCGGGCGGCGTTACACTAGGCG
Briefly: biolayer interferometry. The note with it: 150 mM NaCl, 2 mM MgCl2; 50 mM Tris-HCl, pH 7.5; tested at 1000 nM in aptasensor.

Take `C=C1[C@@H](O)[C@@H]2O[C@]3(CC[C@H](/C=C/[C@@H](C)[C@@H]4CC(C)=C[C@@]5(O[C@H](C[C@@](C)(O)C(=O)O)CC[C@H]5O)O4)O3)CC[C@H]2O[C@@H]1[C@@H](O)C[C@H](C)[C@H]1O[C@@]2(CCCCO2)CC[C@H]1C`: the binding entry is listed as “no”.
